Reference: patent US20160183556A1, “METHOD FOR PRODUCING FEED ADDITIVE CONTAINING SURFACTIN” (SAFT biotechnology com. LTD, priority 2014, published 2016)
In brackets after ≈: the same amount, converted by molar mass. Like-named read-outs stand apart in the source and are kept apart here. Starred links: 1 amine or outer side, 2 acyl side, 3 side chain; linkers in the order of their positions; H or OH if unused. Positions of bridges follow the written chain, without caps; N, C: chain ends. Non-standard residues stand in square brackets, D forms with d. Residues, ends and D or L forms follow the SMILES beside them. X1 = CC(C)CCCCCCCCC[C@H](CC(=O)[*:1])O[*:2]

Assays:
Vibrio harveyi = assay: in vitro susceptibility test (MIC); type: cell-based; conditions: 37° C., OD540, read-out: minimum inhibiting concentration (MIC)
Method: (§1) To examine whether surfactin has antimicrobial activity, in vitro susceptibility test was conducted.
(§2) Preparation of bacterial culture of Escherichia coli DH5α, Vibrio harveyi, Vibrio alginolyticus, Vibrio anguillarum, Vibrio salmonicida, Aeromonas hydrophila and Staphylococcus epidermidis by inoculation of these bacteria onto LBA (E. coli·DH5α) or TSA (+1.5% NaCl) and incubation at 37° C. for 16 hours. Later, the colonies were scraped off and dissolved in specific medium; the concentration was adjusted to OD540 of 1 (1×10^9 colonies/c.c. culture medium), 100 μl of bacterial culture were add to 900 μl of LB or TSB (+1.5% NaCl) to give a concentration of […].
(§3) An aliquot of 130 μl of the bacterial culture was added to each well of a 96-well plate, the concentration of bacterial culture was 5×10^5 CFU/ml, 20 μl of surfactin at different concentrations prepared by titration were added and incubated at 37° C. for 16 hours. A spectrophotometer was used to calculate the concentration of bacterial growth and the obtained data was compared with the original value (OD540=1), the concentration of the experimental group that equals to the original value is used as the minimum inhibiting concentration (MIC). Each group was prepared in triplicate and a control group was included.

Vibrio anguillarum = assay: in vitro susceptibility test (MIC); type: cell-based; conditions: 37° C., OD540, read-out: minimum inhibiting concentration (MIC)
Method: as §1, §2, §3

Vibrio salmonicida = assay: in vitro susceptibility test (MIC); type: cell-based; conditions: 37° C., OD540, read-out: minimum inhibiting concentration (MIC)
Method: as §1, §2, §3

Vibrio alginolyticus = assay: in vitro susceptibility test (MIC); type: cell-based; conditions: 37° C., OD540, read-out: minimum inhibiting concentration (MIC)
Method: as §1, §2, §3

Escherichia coli DH5α = assay: in vitro susceptibility test (MIC); type: cell-based; conditions: E. coli, 37° C.
Method: as §1, §2, §3

[1] = system: Staphylococcus epidermidis; assay: in vitro susceptibility test (MIC); type: cell-based; conditions: 37° C., OD540, read-out: minimum inhibiting concentration (MIC)
Method: as §1, §2, §3

Aspergillus niger = assay: in vitro susceptibility test (MIC), fungal culture; type: cell-based; conditions: read-out: minimum inhibiting concentration (MIC)
Method: as §1
Aspergillus niger was inoculated onto the MEAIII plate and incubated at 25° C. for 48 hours, the colonies were scraped off into specific culture medium. Bacterial culture was spread onto the MEAIII plate after serial dilution and the number of colonies was calculated, the original concentration was determined to be 1×10^6 CFU/ml. An aliquot of 500 μl of the bacterial culture was add to 500 μl of MEB before diluting the concentration of bacterial culture to 5×10^5 CFU/ml.
as §3

Iridovirus = assay: effect of surfactin on morphology of virus particles (transmission electron microscope)
Aeromonas hydrophila = assay: in vitro susceptibility test (MIC); type: cell-based; conditions: 16 h, 37° C., OD540, read-out: minimum inhibiting concentration (MIC)
Method: as §1, §2, §3

bacterial culture = assay: in vitro susceptibility test (MIC), summary statement of the text; type: cell-based
Method: as §1, §2, §3

nervous necrosis virus = assay: effect of surfactin on morphology of virus particles (transmission electron microscope)
Method: Surfactin was dissolved in sterilized water and the solution was filtered with a 0.2 μm filter membrane, followed by dilution of dissolved surfactin in 1% FBS-L15 to give diluted surfactin solution at the concentrations of 40 μg/ml and […]. The surfactin treatment group: surfactin and virus in the volume ratio of 1:1 were mixed. Control group: 1% FBS-L15 culture medium with NNV culture were mixed and incubated at 28° C. for 1 day before examination under a transmission electron microscope (Hitachi H-600). An aliquot of 6 μl of the surfactin treatment group was dropped onto a copper mesh to allow precipitation of the virus for about 10 minutes before been stained in 1% phosphotungstic acid (PTA, Sigma) at pH 7.4. After staining, excess mixture was removed with filter paper and incubated at room temperature for 30 minutes. The sample was examined after the copper mesh was air-dried. The voltage used for transmission electron microscope was 75 KV and the exposure time of the film was 4 seconds. The removed negative film was placed on the rack and soaked in the developer D19 for 4 minutes to develop the image. After completion of development, the film was soaked in 0.33% glacial acetic acid to stop the reaction followed by 10 minutes in fixative. Finally, excess chemicals were removed by placing the film under running water for 60 minutes before drying.

[2] = surfactin 20 μM; reduced from 72 mN/m; cited from earlier work

| Compound | MIC (Vibrio harveyi; 16 hours) [µM] | MIC (Vibrio anguillarum; 16 hours) [µM] | MIC (Vibrio salmonicida; 16 hours) [µM] | MIC (Vibrio alginolyticus; 16 hours) [µM] | MIC (Escherichia coli DH5α; 16 hours, OD540, read-out: minimum inhibiting concentration (MIC)) [µM] | MIC ([1]; 16 hours) [µM] | MIC (Aspergillus niger) [µM] | morphology of Iridovirus particles (Iridovirus; 10 μg/ml surfactin + Iridovirus, FIG. 2B (B)) | morphology of Iridovirus particles (Iridovirus; 40 μg/ml surfactin + Iridovirus, FIG. 2B (C)) | MIC (Vibrio harveyi; 16 h) [µM] | MIC (Vibrio anguillarum; 16 h) [µM] | MIC (Aeromonas hydrophila) [µM] | MIC (Vibrio salmonicida; Aliivibrio salmonicida, 16 h) [µM] | MIC (Vibrio alginolyticus; 16 h) [µM] | MIC (Escherichia coli DH5α; Escherichia coli, 16 h, OD540, read-out: minimum inhibiting concentration (MIC)) [µM] | MIC ([1]; 16 h) [µM] | MIC (bacterial culture) [µM] | morphology of nervous necrosis virus particles (nervous necrosis virus; 40 μg/ml surfactin + nervous necrosis virus, FIG. 2A (D)) | morphology of nervous necrosis virus particles (nervous necrosis virus; 100 μg/ml surfactin + nervous necrosis virus, FIG. 2A (E)) | surface tension of water [2] [mN/m] |
| --- | --- | --- | --- | --- | --- | --- | --- | --- | --- | --- | --- | --- | --- | --- | --- | --- | --- | --- | --- | --- |
| CC(C)CCCCCCCCC[C@@H]1CC(=O)N[C@@H](CCC(=O)O)C(=O)N[C@@H](CC(C)C)C(=O)N[C@H](CC(C)C)C(=O)N[C@@H](C(C)C)C(=O)N[C@@H](CC(=O)O)C(=O)N[C@H](CC(C)C)C(=O)N[C@@H](CC(C)C)C(=O)O1 [surfactin produced by the high-yield mutant strain of Bacill] (EL[dL]VD[dL]L; linker N-C via X1) | 96.5 (≈ 100 µg/mL) | 96.5 (≈ 100 µg/mL) | 96.5 (≈ 100 µg/mL) | 96.5 (≈ 100 µg/mL) | 96.5 (≈ 100 µg/mL) | 96.5 (≈ 100 µg/mL) | 128.7 (≈ 133 µg/mL) |  |  |  |  |  |  |  |  |  |  |  |  |  |
| CC(C)CCCCCCCCC[C@@H]1CC(=O)N[C@@H](CCC(=O)O)C(=O)N[C@@H](CC(C)C)C(=O)N[C@H](CC(C)C)C(=O)N[C@@H](C(C)C)C(=O)N[C@@H](CC(=O)O)C(=O)N[C@H](CC(C)C)C(=O)N[C@@H](CC(C)C)C(=O)O1 [surfactin] (EL[dL]VD[dL]L; linker N-C via X1) |  |  |  |  |  |  | 193 (≈ 200 µg/mL) | the appearance of said virus has changed | adhesion between surfactin and viruses is observed | 129 (≈ 133 µg/mL) | 129 (≈ 133 µg/mL) | 129 (≈ 133 µg/mL) | 129 (≈ 133 µg/mL) | 129 (≈ 133 µg/mL) | 193 (≈ 200 µg/mL) | 129 (≈ 133 µg/mL) | 96.5 (≈ 100 µg/mL) | normal viral particles | abnormal viral particles | 27 |
